The inhibition is the relative decrease from the control value, in per cent.

The structures appear in SMILES notation. Structures can show the parent of a compound that is named as a salt.

The test system of this experiment is swine adipose tissue. Nature of the experiment: Inhibition of lipogenesis (lipid synthesis from glucose-U-14C) in swine adipose tissue slices. It is filed as cell-based. The following applies: Sus scrofa, 100 micrograms per milliliter, 37° C., 2 hours, glucose-U14C, insulin, 5% DMSO, triplicate, read-out: Percent Inhibition (of lipogenesis compared to control). From the text: The manner in which they cause this effect is not known with certainty; it is believed that they interfere with the synthesis of fatty acids in the tissue. Their effectiveness for this purpose has been ascertained by immersing samples of swine adipose tissue in a liquid medium containing radioactive glucose and the test chemical for a period of time, then isolating the lipid from the treated tissue and determining the up-take of the radioactive carbon by means of scintillation counting techniques. These tests were conducted in swine adipose tissue because in swine the primary site of lipogenesis--i.e., fatty acid synthesis--appearsto be adipose tissue. […] 150 milligrams of slices of swine adipose tissue were incubated at 37° C. for 2 hours with shaking in 3 milliliters of Krebs-Ringer bicarbonate solution containing one-half the normal calcium ion concentration, 60 micromoles of glucose, 0.5 microCurie of glucose-U^14 C, and 300 microunits of insulin, and 5% dimethyl sulfoxide (DMSO). The test compounds were added as a solution or suspension in DMSO and were present at a concentration of 100 micrograms per milliliter of the incubation mixture. The incubation was terminated by addition of 0.25 milliliter of 1 N sulfuric acid. The resulting mixture was extracted with a total of 25 milliliters of chloroform:methanol (2:1, v/v). The extracts were washed according to Folch et al. (J. Biol. […] The tests were conducted in triplicate and were accompanied by control tests in which all ingredients,proportions and conditions were the same except that no test compound was included. From the data obtained were calculated the percent inhibition of lipid synthesis by the test compound in each case. The data obtained from the tests were set out in Table I, as the percent inhibition of lipogenesis compared to the results obtained in the control tests wherein only the test compound was omitted.
Turning to `CCOC(=O)C1CNc2cc(C(F)(F)F)ccc2O1` (stereo not drawn) [Compound 7, ethyl 6-(trifluoromethyl)-3,4-dihydro-2H-1,4-benzoxazine-2-carboxylate], the inhibition at 100 µg/mL came out at 31%.
In the case of `CCOC(=O)C1CNc2cc(Cl)ccc2O1` (stereo not drawn) [Compound 2, Ethyl 6-chloro-3,4-dihydro-2H-1,4-benzoxazine-2-carboxylate] it was 28%; in that of `CCOC(=O)C1CNc2cc(-c3ccccc3)ccc2O1` (stereo not drawn) [Compound 13, ethyl 6-phenyl-3,4-dihydro-2H-1,4-benzoxazine-2-carboxylate], 34%; in that of `CCOC(=O)C1CNc2ccc(C)cc2O1` (stereo not drawn) [Compound 10, ethyl 7-methyl-3,4-dihydro-2H-1,4-benzoxazine-2-carboxylate], 54%.
The same measure for `CCOC(=O)C1CNc2cc(OC)ccc2O1` (stereo not drawn) [Compound 8, ethyl 6-methoxy-2,3-dihydro-2H-1,4-benzoxazine-2-carboxylate]: 81%; for `CCOC(=O)C1CNc2cc([N+](=O)[O-])cc(Cl)c2O1` (stereo not drawn) [Compound 11, ethyl 8-chloro-6-nitro-3,4-dihydro-2H-1,4-benzoxazine-2-carboxylate]: 31%; for `CCOC(=O)C1CNc2cc(NS(C)(=O)=O)ccc2O1` (stereo not drawn) [Compound 6, ethyl 3,4-dihydro-6-((methylsulfonyl)amino)-2H-1,4-benzoxazine-2-carboxylate]: 76%.
The same measure for `CCOC(=O)C1CNc2cc([N+](=O)[O-])ccc2O1` (stereo not drawn) [Compound 4, ethyl 6-nitro-3,4-dihydro-2H-1,4-benzoxazine-2-carboxylate]: 74%; for `CCOC(=O)C1CNc2cc(N)ccc2O1` (stereo not drawn) [Compound 5, ethyl 6-amino-3,4-dihydro-2H-1,4-benzoxazine-2-carboxylate hydrochloride]: 43%; for `CCOC(=O)C1CNc2cccc(Cl)c2O1` (stereo not drawn) [Compound 12, ethyl 8-chloro-3,4-dihydro-2H-1,4-benzoxazine-2-carboxylate]: 39%.
Take `CCOC(=O)C1CNc2cc(Cl)c(Cl)cc2O1` (stereo not drawn) [Compound 9, ethyl 6,7-dichloro-2,3-dihydro-2H-1,4-benzoxazine-2-carboxylate]: the inhibition at 100 µg/mL was 56%.
For `CCOC(=O)C1CN(Cc2ccccc2)c2ccccc2O1` (stereo not drawn) [Compound 1, Ethyl 3,4-dihydro-4-benzyl-2H-1,4-benzoxazine-2-carboxylate], the inhibition at 100 µg/mL worked out at 53%.
The same measure for `CCOC(=O)C1CNc2ccc([N+](=O)[O-])cc2O1` (stereo not drawn) [Compound 14, ethyl 7-nitro-3,4-dihydro-2H-1,4-benzoxazine-2-carboxylate]: 92%; for `CCOC(=O)C1CNc2ccccc2O1` (stereo not drawn) [Compound 1A, 3,4-dihydro-2H-1,4-benzoxazine-2-carboxylic acid ethyl ester hydrochloride]: 62%.
In the case of `CCOC(=O)C1CNc2cc(C)ccc2O1` (stereo not drawn) [Compound 3, Ethyl 6-methyl-3,4-dihydro-2H-1,4-benzoxazine-2-carboxylate hydrochloride] it was 18%.

Source of the values: US4180572A, “Lipogenesis control by esters of benzoxazinecarboxylic acids” (Shell Oil Company, priority 1978, dated 1979).
